From patent US20240360139A1, “BLOOD BRAIN BARRIER PENETRATING SELECTIVE INHIBITORS OF ROCK2 PROTEIN KINASES AND USES THEREOF” (GENOSCO Inc., priority 2023, published 2024)

Experiments:
[1] = target: T1, Recombinant ROCK1 (amino acids 1-477) (Homo sapiens, UniProt Q13464); experiment: ROCK inhibition assay, LANCE Ultra TR-FRET (ROCK1); format: biochemical; settings: 1 mM of ATP
T1 construct: Recombinant ROCK1 (amino acids 1-477)

[2] = target: T2, Recombinant ROCK2 (amino acids 5-554) (Homo sapiens, UniProt O75116); experiment: ROCK inhibition assay, LANCE Ultra TR-FRET (ROCK2); format: biochemical; settings: 1 mM of ATP
T2 construct: ROCK2 (amino acids 5-554)

[3] = Blood-brain barrier penetration, brain-to-plasma ratio in mouse; format: in vivo; settings: CD-1 mouse, IV 1 mg/kg, n=3
Procedure: (§1) The concentrations of compounds of (1) in blood and brain were measured from plasma and brain samples taken 0.25 and 2 hours after intravenous (IV) administration of the compounds of (1) at 1 mg/kg in CD-1 mouse and Sprague-Dawley rat (n=3). After euthanizing the mouse and rat, blood samples from cardiac puncture and brain tissue were collected. Plasma or brain homogenate was vortexed for 1 min. with internal standard in Methanol/Acetonitrile (1:1, v/v), and centrifuged at 4000-4500 rpm for 15 min. at room temperature to precipitate proteins. Subsequently, the supernatant was introduced into the LC/MS/MS system. An AB Sciex API 5500 mass spectrometer system (Sciex, USA) was used for quantitative analysis. The concentrations compounds of (1) in plasma and brain sample were determined using the standard calibration curve and brain-to-plasma concentration ratio was calculated.

[4] = Blood-brain barrier penetration, brain-to-plasma ratio in rat; format: in vivo; settings: Sprague-Dawley rat, IV 1 mg/kg, n=3
Procedure: as §1

T1 sequence (Q13464 1-477): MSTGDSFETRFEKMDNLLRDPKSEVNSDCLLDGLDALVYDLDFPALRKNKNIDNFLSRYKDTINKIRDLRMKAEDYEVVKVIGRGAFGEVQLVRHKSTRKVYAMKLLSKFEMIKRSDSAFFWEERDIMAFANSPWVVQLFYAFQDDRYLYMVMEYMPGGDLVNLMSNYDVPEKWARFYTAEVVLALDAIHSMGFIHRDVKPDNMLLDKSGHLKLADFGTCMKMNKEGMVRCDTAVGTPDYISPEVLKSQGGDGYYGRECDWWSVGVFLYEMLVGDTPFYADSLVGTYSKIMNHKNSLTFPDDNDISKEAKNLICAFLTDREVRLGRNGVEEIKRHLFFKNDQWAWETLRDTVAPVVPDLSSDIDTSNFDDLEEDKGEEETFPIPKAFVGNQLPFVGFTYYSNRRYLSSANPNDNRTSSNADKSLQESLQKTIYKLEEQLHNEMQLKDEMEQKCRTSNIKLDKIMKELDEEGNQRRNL
T2 sequence (O75116 5-554): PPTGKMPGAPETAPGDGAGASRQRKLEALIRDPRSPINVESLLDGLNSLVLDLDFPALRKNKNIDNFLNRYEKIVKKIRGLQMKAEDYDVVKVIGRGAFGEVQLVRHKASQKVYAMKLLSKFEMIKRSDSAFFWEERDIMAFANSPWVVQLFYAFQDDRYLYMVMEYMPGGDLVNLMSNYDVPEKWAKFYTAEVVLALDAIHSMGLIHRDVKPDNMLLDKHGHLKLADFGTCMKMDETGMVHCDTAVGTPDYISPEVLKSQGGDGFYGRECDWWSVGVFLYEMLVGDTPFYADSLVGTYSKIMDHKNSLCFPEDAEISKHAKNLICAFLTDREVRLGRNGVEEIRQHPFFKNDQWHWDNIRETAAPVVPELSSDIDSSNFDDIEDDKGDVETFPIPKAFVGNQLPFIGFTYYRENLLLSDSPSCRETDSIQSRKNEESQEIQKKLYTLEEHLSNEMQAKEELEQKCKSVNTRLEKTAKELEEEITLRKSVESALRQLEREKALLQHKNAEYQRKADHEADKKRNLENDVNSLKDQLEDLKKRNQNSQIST

| Compound | IC50 [1] [nM] | IC50 [2] [nM] | Kp at 0.25 h [3] | Kp at 2 h [3] | Kp at 0.25 h [4] | Kp at 2 h [4] |
| --- | --- | --- | --- | --- | --- | --- |
| CNCCn1cc(C(=O)C2COc3ccc(OC)cc3C2)c2ccc(-c3cn[nH]c3F)cc21 (stereo not drawn) [Compound 3-24] | > 501 | 21 to 200 | 0.96 | 0.54 | 1.37 | 1.38 |
| CN1CC[C@@H]1Cn1cc(C(=O)C2COc3ccc(Cl)cc3C2)c2ccc(-c3cn[nH]c3Cl)cc21 (stereo partly drawn) [Compound 1-55] | > 501 | < 20 | 0.67 | 0.8 | 0.4 | 0.59 |
